According to patent publication US20210116454A1, “METHODS FOR TREATING A HEMATOLOGICAL CANCER AND THE USE OF COMPANION BIOMARKERS FOR 2-(2,6-DIOXOPIPERIDIN-3-YL)-4-((2-FLUORO-4-((3-MORPHOLINOAZETIDIN-1-YL)METHYL)BENZYL)AMINO)ISOINDOLINE-1,3-DIONE” (CELGENE CORPORATION, priority 2019, published 2021):
Like-named read-outs stand apart in the source and are kept apart here.

What was measured:
Type in all cases: cell-based
[1] = test system: OCI-LY-19; experiment: 5-day viable cell number and apoptosis (7-AAD exclusion/Annexin V flow cytometry); conditions: OCI-LY-19 cells, 5 days
Excerpt: (§1) The DLBCL panel includes seven cell lines classified as activated B-cell (ABC) subtype, thirteen cell lines classified as the germinal center B-cell (GCB) subtype, and three cell lines classified as primary mediastinal B-cell lymphoma (PMBL). […] The translocation of MYC, BCL6, or BCL2 to an IG locus usually leads to high levels of mRNA and protein due to the active transcription driven by a constitutively active IG promoter. […] Expressions of CRBN protein and known substrates, Ikaros, Aiolos, and ZFP91 were also evaluated (FIG. 1, panels B and C).
(§2) The panel of cell lines were treated with increasing doses of compounds for five days, at which time the number of viable cells was measured and the amount of apoptosis was determined by 7-AAD exclusion and Annexin V staining using flow cytometry.

[2] = test system: RC-K8; experiment: as above
Excerpt: as §1, §2

[3] = test system: KARPAS-1106P; experiment: as above
Excerpt: as §1, §2

[4] = test system: SU-DHL-8; experiment: as above
Excerpt: as §1, §2

[5] = test system: OCI-LY-7; experiment: as above
Excerpt: as §1, §2

[6] = test system: OCI-LY-3; experiment: as above; conditions: OCI-LY-3 cells, 5 days
Excerpt: as §1, §2

[7] = test system: DLBCL cell lines; experiment: Panel of twenty three DLBCL cell lines, 5-day viable cells and apoptosis
Protocol: Compound 1 activity was evaluated in a panel of twenty three DLBCL cell lines. The DLBCL panel includes seven cell lines classified as activated B-cell (ABC) subtype, thirteen cell lines classified as the germinal center B-cell (GCB) subtype, and three cell lines classified as primary mediastinal B-cell lymphoma (PMBL). […] Thus, eleven cell lines have a t(8;14)(q24;q32) and/or t(14;18)(q32;q21.3), corresponding to MYC and BCL2 gene rearrangements into an immunoglobulin (IG) heavy chain locus as well as additional rearrangements affecting BCL6 (Table 1). The translocation of MYC, BCL6, or BCL2 to an IG locus usually leads to high levels of mRNA and protein due to the active transcription driven by a constitutively active IG promoter. Therefore, the protein levels of these genes were monitored by Western blots, confirming the overexpression of BCL2, MYC, and/or BCL6 in all the cell lines evaluated (FIG. 1, panel A). Expressions of CRBN protein and known substrates, Ikaros, Aiolos, and ZFP91 were also evaluated (FIG. 1, panels B and C).
as §2, with “cytometry. […] Overall, the sensitivity to Compound 1 was independent of cell of origin (COO), since ABC, GCB, and PMBL subtypes were sensitive to Compound 1 (Table 2).” for “cytometry.”

[8] = test system: WSU-DLCL2 M-Parental; experiment: Viable cells/apoptosis in doxorubicin-resistant and matching parental lines
Protocol: (§3) The activity of Compound 1 was also evaluated in cell lines with acquired resistance to doxorubicin (Table 4). Doxorubicin-resistant cell lines (DoxoR) were generated by culturing the parental cell lines in vitro with increasing concentrations of doxorubicin for a long period of time (˜9 to 18 months) until they were able to grow in the presence of a relatively high concentration of doxorubicin (1 μM). Matching parental (M-Parent) cells were generated by maintaining the parental cells in culture without treatment for the same amount of time (˜9 to 18 months). The growth-inhibitory effect of doxorubicin on parental cells and the corresponding resistant cells was evaluated by measuring the number of viable cells and extent of apoptosis by 7-AAD exclusion and Annexin V staining using flow cytometry.
(§4) The effects of Compound 1 on the viability of doxorubicin-resistant versus parental cell lines was determined (FIG. 2; Table 5).

[9] = test system: Oci-Ly10 DoxoR; experiment: as above
Protocol: as §3, §4

[10] = test system: SU-DHL-4 M-Parental; experiment: as above
Protocol: as §3, §4

[11] = test system: U2932 DoxoR; experiment: as above
Protocol: as §3, §4

[12] = test system: Oci-Ly10 M-Parental; experiment: as above; conditions: Oci-Ly 10 M-Parental
Protocol: as §3, §4

[13] = test system: WSU-DLCL2 DoxoR; experiment: as above
Protocol: as §3, §4

[14] = test system: U2932 M-Parental; experiment: as above
Protocol: as §3, §4

[15] = test system: SU-DHL-4 DoxoR; experiment: as above
Protocol: as §3, §4

[16] = Homo sapiens, RCK8, 120 h, RC-K8 cells, 5 days
[17] = Homo sapiens, 120 h, KARPAS-1106P cells, 5 days
[18] = Homo sapiens, 120 h, SU-DHL-8 cells, 5 days
[19] = Homo sapiens, OCI-Ly7, 120 h, OCI-LY-7 cells, 5 days
[20] = Homo sapiens, WSUDLCL2, 120 h, 5 days, read-out: IC50
[21] = Homo sapiens, 120 h, 5 days, read-out: IC50

## O=C1CC[C@H](N2C(=O)c3cccc(NCc4ccc(CN5CC(N6CCOCC6)C5)cc4F)c3C2=O)C(=O)N1 [Compound 1, (S)-2-(2,6-dioxopiperidin-3-yl)-4-((2-fluoro-4-((3-morpholinoazetidin-1-yl)methyl)benzyl)amino)isoindoline-1,3-dione]
[1]; Homo sapiens, OCI-LY19, 120 h
  EC50: 80.9 nM
  Emax: 30.6%
[1]; Homo sapiens, OCI-LY19, 120 h, read-out: % Viable Cells IC50
  IC50: 30 nM
[1]
  % Viable Cells AUC: 283.3
  % Viable Cells Emax: 28.11%
  % Viable Cells Sensitivity: Intermediate (intermediate sensitivity with 15% to 55% cell viability)
  Apoptosis AUC: 293.5
  Apoptosis Sensitivity: Intermediate
[2]; [16]
  EC50: 230 nM
  Emax: 9.53%
[2]; Homo sapiens, RCK8, 120 h, RC-K8 cells, 5 days, read-out: % Viable Cells IC50
  IC50: 100 nM
[2]; Homo sapiens, RCK8, RC-K8 cells (Table 3), read-out: IC50
  IC50: 409000 nM
[2]; RC-K8 cells, 5 days
  % Viable Cells AUC: 409.1
  % Viable Cells Emax: 34.92%
  % Viable Cells Sensitivity: Intermediate (intermediate sensitivity with 15% to 55% cell viability)
  Apoptosis AUC: 81.59
  Apoptosis Sensitivity: Intermediate
[3]; [17]
  EC50: 56.1 nM
  Emax: 59.8%
[3]; Homo sapiens, 120 h, KARPAS-1106P cells, 5 days, read-out: % Viable Cells IC50
  IC50: 25 nM
[3]; Homo sapiens, KARPAS-1106P cells (Table 3), read-out: IC50
  IC50: 111000 nM
[3]; KARPAS-1106P cells, 5 days
  % Viable Cells AUC: 110.9
  % Viable Cells Emax: 1.183%
  % Viable Cells Sensitivity: High (highly sensitive to Compound 1 with less than 6% viable cells remaining (Emax) after treatment)
  Apoptosis AUC: 597.7
  Apoptosis Sensitivity: High
[4]; [18]
  EC50: 509 nM
  Emax: 70.5%
[4]; Homo sapiens, 120 h, SU-DHL-8 cells, 5 days, read-out: % Viable Cells IC50
  IC50: 250 nM
[4]; Homo sapiens, SU-DHL-8 cells (Table 3), read-out: IC50
  IC50: 54000 nM
[4]; SU-DHL-8 cells, 5 days
  % Viable Cells AUC: 54.43
  % Viable Cells Emax: 2.508%
  % Viable Cells Sensitivity: High (highly sensitive to Compound 1 with less than 6% viable cells remaining (Emax) after treatment)
  Apoptosis AUC: 652.5
  Apoptosis Sensitivity: High
[5]; [19]
  EC50: 12.8 nM
  Emax: 68.8%
[5]; Homo sapiens, OCI-Ly7, 120 h, OCI-LY-7 cells, 5 days, read-out: % Viable Cells IC50
  IC50: 3.6 nM
[5]; Homo sapiens, OCI-Ly7, OCI-LY-7 cells (Table 3), read-out: IC50
  IC50: 62000 nM
[5]; OCI-LY-7 cells, 5 days
  % Viable Cells AUC: 61.98
  % Viable Cells Emax: 1.657%
  % Viable Cells Sensitivity: High (highly sensitive to Compound 1 with less than 6% viable cells remaining (Emax) after treatment)
  Apoptosis AUC: 673.2
  Apoptosis Sensitivity: High
[6]; Homo sapiens, OCI-Ly3, 120 h
  EC50: 0.46 nM
  Emax: 0.753%
[6]
  % Viable Cells AUC: 986.1
  % Viable Cells Emax: 84.33%
  % Viable Cells Sensitivity: Limited
  Apoptosis AUC: 7.009
  Apoptosis Sensitivity: Limited
[7]; 120 h, eighteen of the twenty three lines, five days of treatment
  IC50: 1 to 400 nM
[7]; ten highly sensitive cell lines
  viable cells remaining (Emax): less than 6%
[8]; [20]
  IC50: 10 nM
[8]; relative to DMSO
  Emax (% viable cells remaining): 23%
[9]; Homo sapiens, OCI-Ly10, 120 h, Oci-Ly 10 DoxoR, 5 days, read-out: IC50
  IC50: 300 nM
[9]; OCI-Ly10 doxorubicin-resistant vs parental
  greater sensitivity of resistant cells compared to parental cells: approximately 20 fold
[9]; Oci-Ly 10 DoxoR, relative to DMSO
  Emax (% viable cells remaining): 22%
[10]; [21]
  IC50: > 10000 nM
[10]; relative to DMSO
  Emax (% viable cells remaining): 74%
[11]; Homo sapiens, 120 h, U2932 DoxoR, 5 days, read-out: IC50
  IC50: 1500 nM
[11]; U2932 DoxoR, relative to DMSO
  Emax (% viable cells remaining): 31%
[11]; U2932 doxorubicin-resistant vs M-parental
  lower sensitivity in doxorubicin-resistant cells: 20 fold
[12]; Homo sapiens, OCI-Ly10, 120 h, 5 days, read-out: IC50
  IC50: 6000 nM
[12]; relative to DMSO
  Emax (% viable cells remaining): 47%
[13]; [20]
  IC50: 100 nM
[13]; relative to DMSO
  Emax (% viable cells remaining): 9%
[14]; [21]
  IC50: 60 nM
[14]; relative to DMSO
  Emax (% viable cells remaining): 19%
[15]; Homo sapiens, 120 h, SU-DHL-4 DoxoR, 5 days, read-out: IC50
  IC50: 100 nM
[15]; SU-DHL-4 DoxoR, relative to DMSO
  Emax (% viable cells remaining): 8%
[15]; SU-DHL-4 doxorubicin-resistant vs parental
  greater sensitivity in the doxorubicin-resistant cell line: > 100 fold
